Test results as given in patent publication US9493486B2, “Diazaspirocycloalkane and azaspirocycloalkane” (Hoffmann-La Roche Inc., priority 2012, dated 2016).

Molecular target: ATX (human His-tagged) (Homo sapiens (Human), UniProt Q13822)
Test: Human ATX enzyme inhibition assay (fluorescence quenching, MR121 substrate)
Type: biochemical
Settings: 30 nM ATX, 1 μM MR121 substrate, 30° C.
From the text: Human ATX Enzyme Inhibition Assay
Assay working solutions were made as follows:

| Compound | IC50 [nM] |
| --- | --- |
| O=C(NC1CC2(C1)CN(C(=O)CCCc1ccccc1)C2)c1ccc2[nH]nnc2c1 [Example 1.08, N-(2-(4-phenylbutanoyl)-2-azaspiro[3.3]heptan-6-yl)-1H-benzo[d][1,2,3]triazole-5-carboxamide] | 3350 |
| O=C(NC1CC2(C1)CN(C(=O)c1ccc3[nH]nnc3c1)C2)OCc1cc(Cl)cc(Cl)c1 [Example 1.12, [2-(1H-benzotriazole-5-carbonyl)-2-aza-spiro[3.3]hept-6-yl]-carbamic acid 3,5-dichloro-benzyl ester] | 35 |
| O=C(NC1CC2(C1)CN(C(=O)CCc1cc(Cl)cc(Cl)c1)C2)c1ccc2[nH]nnc2c1 [Example 1.11, N-(2-(3-(3,5-dichlorophenyl)propanoyl)-2-azaspiro[3.3]heptan-6-yl)-1H-benzo[d][1,2,3]triazole-5-carboxamide] | 155 |
| O=C(NCc1cc(Cl)cc(Cl)c1)N1CCC2(CC1)CN(C(=O)c1ccc3[nH]nnc3c1)C2 [Example 9, 2-(1H-Benzo[d][1,2,3]triazole-5-carbonyl)-N-(3,5-dichlorobenzyl)-2,7-diazaspiro[3.5]nonane-7-carboxamide] | 1060 |
| O=C(OCc1cc(Cl)cc(Cl)c1)N1CCC2(C1)CN(C(=O)c1ccc3[nH]nnc3c1)C2 [Example 1.14, 3,5-dichlorobenzyl 2-(1H-benzo[d][1,2,3]triazole-5-carbonyl)-2,6-diazaspiro[3.4]octane-6-carboxylate] | 73.7 |
| O=C(OCc1cc(Cl)cc(Cl)c1)N1CC2(CC(NS(=O)(=O)c3ccc4[nH]c(=O)oc4c3)C2)C1 [Example 3.4, 3,5-dichlorobenzyl 6-(2-oxo-2,3-dihydrobenzo[d]oxazole-6-sulfonamido)-2-azaspiro[3.3]heptane-2-carboxylate] | 19.5 |
| CS(=O)(=O)c1cc(Cl)cc(COC(=O)N2CCC3(CC2)CN(C(=O)c2ccc(S(N)(=O)=O)cc2)C3)c1 [Example 1.17, 3-chloro-5-(methylsulfonyl)benzyl 2-(4-sulfamoylbenzoyl)-2,7-diazaspiro[3.5]nonane-7-carboxylate] | 729 |
| O=C(NC1CC2(C1)CN(C(=O)OCc1cc(Cl)cc(Cl)c1)C2)c1ccc2[nH]nnc2c1 [Example 1.13, 6-[(1H-benzotriazole-5-carbonyl)-amino]-2-aza-spiro[3.3]heptane-2-carboxylic acid 3,5-dichloro-benzyl ester] | 5430 |
| O=C(OCc1cc(Cl)cc(Cl)c1)N1CCC2(C1)CN(C(=O)c1ccc3[nH]c(=O)oc3c1)C2 [Example 2, 3,5-Dichlorobenzyl 2-(2-oxo-2,3-dihydro-benzo[d]oxazole-6-carbonyl)-2,6-diazaspiro[3.4]octane-6-carboxylate] | 26 |
| O=C(c1ccc2[nH]nnc2c1)N1CC2(CCN(C(=O)N3Cc4ccc(Cl)cc4C3)CC2)C1 [Example 10, (2-(1H-Benzo[d][1,2,3]-triazole-5-carbonyl)-2,7-diazaspiro[3.5]nonan-7-yl)(5-chloroisoindolin-2-yl)methanone] | 3440 |
| O=C(/C=C/c1cc(Cl)cc(Cl)c1)N1CCC2(CC1)CN(C(=O)c1ccc3[nH]nnc3c1)C2 [Example 6, (E)-1-(2-(1H-benzo[d][1,2,3]triazole-5-carbonyl)-2,7-diazaspiro[3.5]nonan-7-yl)-3-(3,5-dichlorophenyl)prop-2-en-1-one] | 26 |
| O=C(NC1CC2(C1)CN(C(=O)c1ccc3[nH]nnc3c1)C2)OCc1ccccc1 [Example 1.10, [2-(1H-benzotriazole-5-carbonyl)-2-aza-spiro[3.3]hept-6-yl]-carbamic acid benzyl ester] | 3700 |
| O=C(c1ccc2[nH]nnc2c1)N1CC2(CCN(c3nnc(-c4ccc(Cl)cc4)s3)CC2)C1 [Example 8, (1H-Benzo[d][1,2,3]triazol-5-yl)(7-(5-(4-chlorophenyl)-1,3,4-thiadiazol-2-yl)-2,7-diazaspiro[3.5]nonan-2-yl)methanone] | 178 |

Other lines, results leading:

| IC50 [nM] | Compound |
| --- | --- |
| 622 | O=C(OCc1cnc(Cl)c(Cl)c1)N1CCC2(CC1)CN(C(=O)c1ccc3[nH]nnc3c1)C2 [Example 12.03, (5,6-dichloropyridin-3-yl)methyl 2-(1H-benzo[d][1,2,3]triazole-5-carbonyl)-2,7-diazaspiro[3.5]nonane-7-carboxylate] |
| 13 | O=C(OCc1ccc(OC(F)(F)F)c(F)c1)N1CC2(CCN(C(=O)C3CCc4[nH]nnc4C3)CC2)C1 (centres unmarked) [Example 12.33, 3-fluoro-4-(trifluoromethoxy)benzyl 7-(4,5,6,7-tetrahydro-1H-benzo[d][1,2,3]triazole-5-carbonyl)-2,7-diazaspiro[3.5]nonane-2-carboxylate] |
| 439 | O=C(OCc1ccc(C(F)(F)F)cc1)N1CCC2(CC1)CN(C(=O)c1ccc3[nH]c(=O)oc3c1)C2 [Example 12.22, 4-(trifluoromethyl)benzyl 2-(2-oxo-2,3-dihydrobenzo[d]oxazole-6-carbonyl)-2,7-diazaspiro[3.5]nonane-7-carboxylate] |
| 229 | Cc1ccc(COC(=O)N2CC3(CC(NC(=O)c4ccc5[nH]nnc5c4)C3)C2)cc1Cl [Example 12.24, 6-[(1H-benzotriazole-5-carbonyl)-amino]-2-aza-spiro[3.3]heptane-2-carboxylic acid 3-chloro-4-methyl-benzyl ester] |
| 332 | O=C(OCc1csc(Cl)c1)N1CCC2(CC1)CN(C(=O)c1ccc3[nH]nnc3c1)C2 [Example 12.12, (5-chlorothiophen-3-yl)methyl 2-(1H-benzo[d][1,2,3]triazole-5-carbonyl)-2,7-diazaspiro[3.5]nonane-7-carboxylate] |
| 5640 | N#Cc1cc(Cl)cc(COC(=O)N2CC3(CC(NC(=O)c4ccc5[nH]nnc5c4)C3)C2)c1 [Example 12.20, 6-[(1H-benzotriazole-5-carbonyl)-amino]-2-aza-spiro[3.3]heptane-2-carboxylic acid 3-chloro-5-cyano-benzyl ester] |
| 1600 | O=C(OCc1cc(F)cc(OC(F)(F)F)c1)N1CCCC2(CCN(C(=O)c3ccc4[nH]nnc4c3)C2)C1 (centres unmarked) [Example 12.30, 3-fluoro-5-(trifluoromethoxy)benzyl 2-(1H-benzo[d][1,2,3]triazole-5-carbonyl)-2,7-diazaspiro[4.5]decane-7-carboxylate] |
| 270 | O=C(OCc1csc(Br)c1)N1CCC2(CC1)CN(C(=O)c1ccc3[nH]nnc3c1)C2 [Example 12.14, (5-bromothiophen-3-yl)methyl 2-(1H-benzo[d][1,2,3]triazole-5-carbonyl)-2,7-diazaspiro[3.5]nonane-7-carboxylate] |
| 1 | O=C(OCc1ccc(OC(F)(F)F)cc1F)N1CCC2(CC1)CN(C(=O)N1CCc3[nH]nnc3C1)C2 [Example 13.01, 2-fluoro-4-(trifluoromethoxy)benzyl 2-(4,5,6,7-tetrahydro-1H-[1,2,3]triazolo[4,5-c]pyridine-5-carbonyl)-2,7-diazaspiro[3.5]nonane-7-carboxylate] |
| 168 | O=C(OCc1ccc(F)c(Cl)c1)N1CCC2(CC1)CN(C(=O)c1ccc3[nH]nnc3c1)C2 [Example 12.11, 3-chloro-4-fluorobenzyl 2-(1H-benzo[d][1,2,3]triazole-5-carbonyl)-2,7-diazaspiro[3.5]nonane-7-carboxylate] |
| 128 | O=C(C#Cc1ccc(Cl)cc1)N1CCC2(CC1)CN(C(=O)c1ccc3[nH]nnc3c1)C2 [Example 6.9, 1-(2-(1H-benzo[d][1,2,3]triazole-5-carbonyl)-2,7-diazaspiro[3.5]nonan-7-yl)-3-(4-chlorophenyl)prop-2-yn-1-one] |
| 7240 | CS(=O)(=O)c1cc(COC(=O)N2CCC3(CC2)CN(C(=O)c2ccc4[nH]nnc4c2)C3)ccc1Cl [Example 12.06, 4-chloro-3-(methylsulfonyl)benzyl 2-(1H-benzo[d][1,2,3]triazole-5-carbonyl)-2,7-diazaspiro[3.5]nonane-7-carboxylate] |
| 298 | O=C(COc1cc(Cl)cc(Cl)c1)N1CCC2(CC1)CN(C(=O)c1ccc3[nH]nnc3c1)C2 [Example 6.2, 1-(2-(1H-benzo[d][1,2,3]triazole-5-carbonyl)-2,7-diazaspiro[3.5]nonan-7-yl)-2-(3,5-dichlorophenoxy)ethanone] |
| 140 | CS(=O)(=O)c1cc(Cl)ccc1COC(=O)N1CCC2(CC1)CN(C(=O)c1ccc3[nH]nnc3c1)C2 [Example 12.27, 4-chloro-2-(methylsulfonyl)benzyl 2-(1H-benzo[d][1,2,3]triazole-5-carbonyl)-2,7-diazaspiro[3.5]nonane-7-carboxylate] |
| 1 | O=C(OCc1ccc(C(F)(F)F)cc1F)N1CCC2(CC1)CN(C(=O)C1CCc3[nH]nnc3C1)C2 (centres unmarked) [Example 12.36, [2-fluoro-4-(trifluoromethyl)phenyl]methyl 2-(4,5,6,7-tetrahydro-1H-benzotriazole-5-carbonyl)-2,7-diazaspiro[3.5]nonane-7-carboxylate] |
| 8 | O=C(OCc1cc(Cl)cc(C(F)(F)F)c1)N1CCC2(CC1)CN(C(=O)c1ccc3[nH]nnc3c1)C2 [Example 12.44, 3-chloro-5-(trifluoromethyl)benzyl 2-(1H-benzo[d][1,2,3]triazole-5-carbonyl)-2,7-diazaspiro[3.5]nonane-7-carboxylate] |
| 457 | O=C(OCc1cc(Cl)cc(Cl)c1)N1CCC2(CCN(C(=O)c3ccc4[nH]nnc4c3)C2)C1 (centres unmarked) [Example 12.16, 3,5-dichlorobenzyl 7-(1H-benzo[d][1,2,3]triazole-5-carbonyl)-2,7-diazaspiro[4.4]nonane-2-carboxylate] |
| 100 | O=C(OCc1ccc(C(F)(F)F)cc1F)N1CCC2(CC1)CN(C(=O)[C@H]1CCc3[nH]nnc3C1)C2 [Example 16A, (S)-[2-Fluoro-4-(trifluoromethyl)phenyl]methyl 2-[4,5,6,7-tetrahydro-1H-benzotriazole-5-carbonyl]-2,7-diazaspiro[3.5]nonane-7-carboxylate] |
| 61 | O=C(CCc1cc(Cl)cc(Cl)c1)N1CCC2(CC1)CN(C(=O)c1ccc3[nH]c(=O)oc3c1)C2 [Example 5.1, 6-(7-(3-(3,5-dichlorophenyl)propanoyl)-2,7-diazaspiro[3.5]nonane-2-carbonyl)benzo[d]oxazol-2(3H)-one] |
